# How the values were obtained:
# Experiment in all cases: relative viability (nuclei count vs DMSO), 5 days (fraction); higher = more cells survive
# Alisertib + Palbociclib = compound: COc1cc(Nc2ncc3c(n2)-c2ccc(Cl)cc2C(c2c(F)cccc2OC)=NC3)ccc1C(=O)O [Alisertib] + CC(=O)c1c(C)c2cnc(Nc3ccc(N4CCNCC4)cn3)nc2n(C2CCCC2)c1=O [Palbociclib] (partner 0.5 µM)
# Outline: (§1)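 Relative viability equals treated-well nuclei counts divided by vehicle-well nuclei counts. Counts came from 4× images of lung cancer cell lines grown in 1536-well plates for 5 days after pin-tool dosing on the day after seeding. Dosing used one drug alone or a fixed anchor-drug dose plus five library-drug doses (not always all listed) in √10 steps, and values are medians of duplicate plates.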
# Alisertib + Crizotinib = compound: COc1cc(Nc2ncc3c(n2)-c2ccc(Cl)cc2C(c2c(F)cccc2OC)=NC3)ccc1C(=O)O [Alisertib] + C[C@@H](Oc1cc(-c2cnn(C3CCNCC3)c2)cnc1N)c1c(Cl)ccc(F)c1Cl [Crizotinib] (partner 1 µM)
# Outline: as §1
# Alisertib + AZD7762 = compound: COc1cc(Nc2ncc3c(n2)-c2ccc(Cl)cc2C(c2c(F)cccc2OC)=NC3)ccc1C(=O)O [Alisertib] + NC(=O)Nc1cc(-c2cccc(F)c2)sc1C(=O)N[C@H]1CCCNC1 [AZD7762] (partner 0.2 µM)
# Outline: as §1
# Alisertib + Vorinostat = compound: COc1cc(Nc2ncc3c(n2)-c2ccc(Cl)cc2C(c2c(F)cccc2OC)=NC3)ccc1C(=O)O [Alisertib] + O=C(CCCCCCC(=O)Nc1ccccc1)NO [Vorinostat] (partner 1 µM)
# Outline: as §1
Cell Line,relative viability (Alisertib + Palbociclib; first compound 0.005 µM),relative viability (Alisertib + Palbociclib; first compound 0.01581 µM),relative viability (Alisertib + Palbociclib; first compound 0.05 µM),relative viability (Alisertib + Palbociclib; first compound 0.1581 µM),relative viability (Alisertib + Palbociclib; first compound 0.5 µM),relative viability (Alisertib + Crizotinib; first compound 0.005 µM),relative viability (Alisertib + Crizotinib; first compound 0.01581 µM),relative viability (Alisertib + Crizotinib; first compound 0.05 µM),relative viability (Alisertib + Crizotinib; first compound 0.1581 µM),relative viability (Alisertib + Crizotinib; first compound 0.5 µM),relative viability (Alisertib + AZD7762; first compound 0.005 µM),relative viability (Alisertib + AZD7762; first compound 0.01581 µM),relative viability (Alisertib + AZD7762; first compound 0.05 µM),relative viability (Alisertib + AZD7762; first compound 0.1581 µM),relative viability (Alisertib + AZD7762; first compound 0.5 µM),relative viability (Alisertib + Vorinostat; first compound 0.005 µM),relative viability (Alisertib + Vorinostat; first compound 0.01581 µM),relative viability (Alisertib + Vorinostat; first compound 0.05 µM),relative viability (Alisertib + Vorinostat; first compound 0.1581 µM),relative viability (Alisertib + Vorinostat; first compound 0.5 µM)
201T,0.351,0.33,0.327,0.28,0.24,0.982,0.992,0.938,0.809,0.418,0.618,0.753,0.675,0.46,0.277,0.927,0.881,0.913,0.414,0.333
A-427,0.493,0.444,0.255,0.276,0.24,0.903,0.839,0.136,0.146,0.174,0.602,0.362,0.206,0.196,0.212,0.603,0.41,0.313,0.27,0.262
ABC-1,0.697,0.661,0.67,0.371,0.316,1.1,0.551,0.363,0.318,0.23,,0.594,0.648,0.307,0.272,0.993,0.753,0.46,0.249,0.332
BEN,0.45,0.444,0.348,0.327,0.384,0.868,0.838,0.238,0.213,0.237,0.57,0.592,0.359,0.335,0.389,0.522,0.456,0.332,0.332,0.385
CAL-12T,0.327,0.259,0.188,0.138,0.172,0.613,0.232,0.142,0.166,0.109,0.528,0.314,0.183,0.224,0.201,0.506,0.592,0.262,0.189,0.169
ChaGo-K-1,0.817,0.686,0.219,0.203,0.166,1.08,0.849,0.366,0.344,0.317,0.827,0.755,0.633,0.213,0.166,0.653,0.643,0.24,0.207,0.161
EKVX,0.386,0.431,0.27,0.183,0.176,0.796,0.807,0.313,0.182,0.219,0.554,0.46,0.278,0.132,0.172,0.684,0.551,0.285,0.263,0.319
EMC-BAC-2,0.51,0.416,0.4,0.382,0.268,0.683,0.382,0.25,0.225,0.148,0.834,0.569,0.591,0.313,0.28,0.28,0.257,0.202,0.186,0.151
EPLC-272H,0.32,0.318,0.303,0.236,0.238,0.931,0.851,0.739,0.201,0.113,0.286,0.308,0.196,0.12,0.106,0.454,0.401,0.248,0.104,0.132
H3255,0.313,0.314,0.312,0.278,0.249,0.909,0.765,0.662,0.205,0.174,0.712,0.952,0.613,0.274,0.234,0.8,0.822,0.656,0.337,0.264
HARA,0.288,0.242,0.243,0.161,0.147,1.05,0.796,0.277,0.169,0.135,0.28,0.567,0.339,0.217,0.0911,0.44,0.131,0.0659,0.0632,0.0823
HCC-15,0.661,0.465,0.296,0.213,0.146,0.808,0.655,0.219,0.115,0.0945,0.994,1.16,1.12,0.355,0.133,0.777,0.588,0.201,0.167,0.134
HCC-44,0.949,0.85,0.636,0.616,0.338,0.872,0.769,0.388,0.219,0.176,0.888,0.992,0.966,0.588,0.439,1.05,0.784,0.397,0.387,0.339
HCC-78,0.5,0.458,0.357,0.407,0.307,0.358,0.291,0.205,0.153,0.205,0.544,0.569,0.363,0.23,0.28,0.369,0.281,0.234,0.241,0.217
HCC-366,0.361,0.322,0.0243,0.0284,0.039,0.686,0.456,0.0307,0.0254,0.0216,0.351,0.396,0.0718,0.0314,0.027,0.171,0.0448,0.0208,0.0312,0.0381
HCC-827,0.459,0.537,0.379,0.27,0.207,0.898,0.802,0.374,0.395,0.254,0.18,0.247,0.206,0.123,0.15,0.779,0.717,0.753,0.29,0.274

# — the supplement of paper PMC10307832
